The numbers were not newly measured in patent US6579533B1, “Bioabsorbable drug delivery system for local treatment and prevention of infections” (Bioasborbable Concepts, Ltd., priority 1999, dated 2003), which cites them from elsewhere.

The test system of this data set is most microbial strains.

For the compound `O=C(O)c1cn(C2CC2)c2cc(N3CCNCC3)c(F)cc2c1=O` [ciprofloxacin], the “minimum inhibition concentration (MIC)” value is below 2 mg/L.
